This is an account of results in article PMC7363723, “Fungal Kti12 proteins display unusual linker regions and unique ATPase p-loops” (Current Genetics, 2020).

SMILES strings stand for the structures. Some results are limits rather than exact numbers.

Holding throughout (assay type): binding
The target in test [1] is T1, CtKti12 (Thermochaetoides thermophila, UniProt G0SHI1, K14V).
T1 construct: gene CTHT_0070100; full-length, codon-optimized ORF in pET24d (NcoI/XhoI), purified from bacteria; PDB 6QP0 (earlier work) covers the ATPase domain only
T1 sequence (G0SHI1 entry or part of it K14V): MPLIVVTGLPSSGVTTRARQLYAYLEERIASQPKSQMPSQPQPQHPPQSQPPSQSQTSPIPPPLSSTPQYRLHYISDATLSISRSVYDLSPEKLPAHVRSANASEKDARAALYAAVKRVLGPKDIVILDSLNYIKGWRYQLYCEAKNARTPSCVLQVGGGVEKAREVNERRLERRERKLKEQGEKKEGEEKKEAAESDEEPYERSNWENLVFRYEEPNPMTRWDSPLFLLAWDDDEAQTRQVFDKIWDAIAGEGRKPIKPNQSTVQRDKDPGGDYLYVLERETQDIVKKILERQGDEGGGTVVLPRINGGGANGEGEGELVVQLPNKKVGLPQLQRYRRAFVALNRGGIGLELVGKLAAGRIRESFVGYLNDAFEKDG
The test can be described thus: fluorescence polarization, one-site fit. For orientation: Polarisation of emitted light reports the rotation of a fluorescent probe.

In test [2] the target is T2, CtKti12 (Thermochaetoides thermophila, UniProt G0SHI1, K14L).
T2 construct: gene CTHT_0070100; full-length, codon-optimized ORF in pET24d (NcoI/XhoI), purified from bacteria; PDB 6QP0 (earlier work) covers the ATPase domain only
T2 sequence (G0SHI1 entry or part of it K14L): as the sequence (G0SHI1 entry or part of it K14V) above, with V14L counted along it
The experiment in a line: fluorescence polarization, one-site fit.

Test [3] addresses T3, CtKti12 (Thermochaetoides thermophila, UniProt G0SHI1, K14A).
T3 construct: gene CTHT_0070100; full-length, codon-optimized ORF in pET24d (NcoI/XhoI), purified from bacteria; PDB 6QP0 (earlier work) covers the ATPase domain only
The test can be described thus: fluorescence polarization, one-site fit.

In test [4] the target is T4, CtKti12 (Thermochaetoides thermophila, UniProt G0SHI1).
T4 construct: gene CTHT_0070100; full-length, codon-optimized ORF in pET24d (NcoI/XhoI), purified from bacteria; PDB 6QP0 (earlier work) covers the ATPase domain only
T4 sequence (G0SHI1 1-378): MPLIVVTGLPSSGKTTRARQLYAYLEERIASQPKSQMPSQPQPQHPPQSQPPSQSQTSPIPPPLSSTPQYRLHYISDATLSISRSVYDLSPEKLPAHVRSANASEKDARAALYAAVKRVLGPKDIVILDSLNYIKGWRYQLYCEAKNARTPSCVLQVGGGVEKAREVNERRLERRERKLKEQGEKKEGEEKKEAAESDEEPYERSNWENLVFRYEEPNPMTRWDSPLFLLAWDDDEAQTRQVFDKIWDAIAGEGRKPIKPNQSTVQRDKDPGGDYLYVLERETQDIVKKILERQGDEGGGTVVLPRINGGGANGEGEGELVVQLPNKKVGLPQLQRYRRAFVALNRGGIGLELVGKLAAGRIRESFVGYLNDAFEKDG
The test can be described thus: fluorescence polarization, one-site fit.

Test [5] concerns the target T4, CtKti12. The experiment in a line: thermal shift assay (SYPRO Orange). Particulars: 1 mM ATP, 2 mM MgCl2, 20 mM Tris-HCl pH 7.5, 150 mM NaCl, 2 mM DTT; 0.6 °C/min.

T3 sequence (G0SHI1 entry or part of it K14A): as the sequence (G0SHI1 entry or part of it K14V) above, with V14A counted along it

As usually defined, the Kd is a measure of binding affinity in units of concentration. Read a high Kd as weaker binding. For `CNc1ccccc1C(=O)O[C@H]1[C@@H](O)[C@H](n2cnc3c(N)ncnc32)O[C@@H]1CO[P@@](=O)(O)O[P@](=O)(O)OP(=O)(O)O` [MANT-ATP], the Kd at CtKti12 [1] is > 100 µM; on CtKti12 [2], 25 ± 2.4 µM; on CtKti12 [3] it was > 100 µM; at CtKti12 [4], 1.5 ± 0.2 µM.
As to `Nc1ncnc2c1ncn2[C@@H]1O[C@H](COP(=O)(O)OP(=O)(O)OP(=O)(O)O)[C@@H](O)[C@H]1O` [ATP], on CtKti12 [5], the “melting point without ATP to with ATP” value was 46.0 to 50.0 °C.
